Molecules are shown by their SMILES.

Turning to `CCCCc1cn(Cc2csc(-c3ccc(Cl)cc3)n2)nn1` [Compound 2, 4-((4-Butyl-1H-1,2,3-triazol-1-yl)methyl)-2-(4-chlorophenyl)thiazole], the melting point lay within 98 to 99 °C.

Regarding `Clc1ccc(-c2nc(Cn3cc(C4CC4)nn3)cs2)cc1` [Compound 3, 2-(4-Chlorophenyl)-4-((4-cyclopropyl-1H-1,2,3-triazol-1-yl)methyl)thiazole], the melting point lay within 109 to 111 °C.

`OCc1cn(Cc2csc(-c3ccc(Cl)cc3)n2)nn1` [Compound 4, (1-((2-(4-Chlorophenyl)thiazol-4-yl)methyl)-1H-1,2,3-triazol-4-yl)methanol] displayed a melting point of 152 to 154 °C.

`CCCCCc1cn(Cc2csc(-c3ccc(Cl)cc3)n2)nn1` [Compound 5, 2-(4-Chlorophenyl)-4-((4-pentyl-1H-1,2,3-triazol-1-yl)methyl)thiazole]: the melting point lay within 88 to 90 °C.

Turning to `Clc1ccc(-c2nc(Cn3cc(COC4CCCCO4)nn3)cs2)cc1` (centres unmarked) [Compound 6, 2-(4-Chlorophenyl)-4-((4-(((tetrahydro-2H-pyran-2-yl)oxy)methyl)-1H-1,2,3-triazol-1-yl)methyl)thiazole], the melting point was 92 to 94 °C.

The compound `CCOC(=O)c1cn(Cc2csc(-c3ccc(Cl)cc3)n2)nn1` [Compound 7, Ethyl 1-((2-(4-chlorophenyl)thiazol-4-yl)methyl)-1H-1,2,3-triazole-4-carboxylate] had a melting point of 149 to 151 °C.

`OCCCCc1cn(Cc2csc(-c3ccc(Cl)cc3)n2)nn1` [Compound 8, 4-(1-((2-(4-Chlorophenyl)thiazol-4-yl)methyl)-1H-1,2,3-triazol-4-yl)butan-1-ol]: the melting point is 157 to 159 °C.

For the compound `Clc1ccc(-c2nc(Cn3nncc3-c3ccccc3)cs2)cc1` [Compound 9, 2-(4-chlorophenyl)-4-((5-phenyl-1H-1,2,3-triazol-1-yl)methyl)thiazole], the melting point lay within 175 to 177 °C.

The term melting point denotes the temperature, or range, at which the solid turns liquid.

(Values after US10246449B2, “1,2,3 triazole-thiazole compounds, process for preparation and use thereof” (Council of Scientific & Industrial Research, priority 2015, dated 2019).)
